# The supplement of paper PMC6045584
# ± gives the standard deviation of the averaged measurements.
# Tests used:
# DASATINIB = compound: Cc1nc(Nc2ncc(C(=O)Nc3c(C)cccc3Cl)s2)cc(N2CCN(CCO)CC2)n1 [DASATINIB]; experiment: surviving fraction relative to DMSO-only wells; higher = less growth inhibition; details: exposure time: 5 days
# Method in brief: (§1)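 A line counted only if its three screens reached replicate Pearson r >0.7 and median Z' >0.3. Tumour cells in log phase were seeded at 250–500 per well in 384-well plates and, after 24 hours, kept in continuous contact with inhibitors at 0.5, 1, 5, 10, 50, 100, 500 and 1000 nM for five days. Surviving fraction was taken from CellTiter-Glo luminescence relative to the median of DMSO-only wells.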
# XAV-939 = compound: Oc1nc(-c2ccc(C(F)(F)F)cc2)nc2c1CSCC2 [XAV-939]; experiment: as above; details: exposure time: 5 days
# Method in brief: as §1
test system,measurement,setting,value
SYO1 SYNOVIAL,surviving fraction,DASATINIB; 0.5 nM,0.777 ± 0.024
same,surviving fraction,DASATINIB; 1 nM,0.758 ± 0.041
same,surviving fraction,DASATINIB; 5 nM,0.651 ± 0.03
same,surviving fraction,DASATINIB; 10 nM,0.566 ± 0.07
same,surviving fraction,DASATINIB; 50 nM,0.415 ± 0.02
same,surviving fraction,DASATINIB; 100 nM,0.383 ± 0.026
same,surviving fraction,DASATINIB; 500 nM,0.351 ± 0.011
same,surviving fraction,DASATINIB; 1000 nM,0.34 ± 0.017
same,surviving fraction,XAV-939; 0.5 nM,0.954 ± 0.039
same,surviving fraction,XAV-939; 1 nM,0.998 ± 0.062
same,surviving fraction,XAV-939; 5 nM,0.984 ± 0.028
same,surviving fraction,XAV-939; 10 nM,0.997 ± 0.047
same,surviving fraction,XAV-939; 50 nM,0.973 ± 0.059
same,surviving fraction,XAV-939; 100 nM,0.879 ± 0.024
same,surviving fraction,XAV-939; 500 nM,0.708 ± 0.044
same,surviving fraction,XAV-939; 1000 nM,0.568 ± 0.0066
T47D BREAST,surviving fraction,DASATINIB; 0.5 nM,0.937 ± 0.032
same,surviving fraction,DASATINIB; 1 nM,0.903 ± 0.043
same,surviving fraction,DASATINIB; 5 nM,0.903 ± 0.057
same,surviving fraction,DASATINIB; 10 nM,0.937 ± 0.042
same,surviving fraction,DASATINIB; 50 nM,1 ± 0.035
same,surviving fraction,DASATINIB; 100 nM,0.975 ± 0.042
same,surviving fraction,DASATINIB; 500 nM,0.964 ± 0.048
same,surviving fraction,DASATINIB; 1000 nM,0.982 ± 0.061
same,surviving fraction,XAV-939; 0.5 nM,1.04 ± 0.074
same,surviving fraction,XAV-939; 1 nM,1.08 ± 0.045
same,surviving fraction,XAV-939; 5 nM,1.07 ± 0.02
same,surviving fraction,XAV-939; 10 nM,1.09 ± 0.014
same,surviving fraction,XAV-939; 50 nM,1.09 ± 0.044
same,surviving fraction,XAV-939; 100 nM,1.13 ± 0.053
same,surviving fraction,XAV-939; 500 nM,1.04 ± 0.052
same,surviving fraction,XAV-939; 1000 nM,1.05 ± 0.042
U2OS BONE,surviving fraction,DASATINIB; 0.5 nM,0.951 ± 0.031
same,surviving fraction,DASATINIB; 1 nM,0.953 ± 0.022
same,surviving fraction,DASATINIB; 5 nM,0.957 ± 0.059
same,surviving fraction,DASATINIB; 10 nM,0.865 ± 0.051
same,surviving fraction,DASATINIB; 50 nM,0.8 ± 0.035
same,surviving fraction,DASATINIB; 100 nM,0.692 ± 0.021
same,surviving fraction,DASATINIB; 500 nM,0.514 ± 0.024
same,surviving fraction,DASATINIB; 1000 nM,0.503 ± 0.006
same,surviving fraction,XAV-939; 0.5 nM,1.02 ± 0.028
same,surviving fraction,XAV-939; 1 nM,1.04 ± 0.012
same,surviving fraction,XAV-939; 5 nM,1.07 ± 0.032
same,surviving fraction,XAV-939; 10 nM,1.06 ± 0.038
same,surviving fraction,XAV-939; 50 nM,1.06 ± 0.014
same,surviving fraction,XAV-939; 100 nM,1.04 ± 0.018
same,surviving fraction,XAV-939; 500 nM,0.921 ± 0.02
same,surviving fraction,XAV-939; 1000 nM,0.8627 ± 0.0081
VCAP PROSTATE,surviving fraction,DASATINIB; 0.5 nM,0.856 ± 0.048
same,surviving fraction,DASATINIB; 1 nM,0.89 ± 0.014
same,surviving fraction,DASATINIB; 5 nM,0.923 ± 0.026
same,surviving fraction,DASATINIB; 10 nM,0.943 ± 0.091
same,surviving fraction,DASATINIB; 50 nM,1.01 ± 0.12
same,surviving fraction,DASATINIB; 100 nM,1.02 ± 0.11
same,surviving fraction,DASATINIB; 500 nM,1.02 ± 0.061
same,surviving fraction,DASATINIB; 1000 nM,0.932 ± 0.062
same,surviving fraction,XAV-939; 0.5 nM,0.963 ± 0.12
same,surviving fraction,XAV-939; 1 nM,0.958 ± 0.077
same,surviving fraction,XAV-939; 5 nM,1.08 ± 0.092
same,surviving fraction,XAV-939; 10 nM,0.973 ± 0.089
same,surviving fraction,XAV-939; 50 nM,0.957 ± 0.083
same,surviving fraction,XAV-939; 100 nM,0.903 ± 0.088
same,surviving fraction,XAV-939; 500 nM,0.848 ± 0.13
same,surviving fraction,XAV-939; 1000 nM,0.84 ± 0.024
VP229 BREAST,surviving fraction,DASATINIB; 0.5 nM,0.813 ± 0.044
same,surviving fraction,DASATINIB; 1 nM,0.855 ± 0.081
same,surviving fraction,DASATINIB; 5 nM,0.708 ± 0.031
same,surviving fraction,DASATINIB; 10 nM,0.619 ± 0.027
same,surviving fraction,DASATINIB; 50 nM,0.467 ± 0.032
same,surviving fraction,DASATINIB; 100 nM,0.484 ± 0.0085
same,surviving fraction,DASATINIB; 500 nM,0.45 ± 0.031
same,surviving fraction,DASATINIB; 1000 nM,0.484 ± 0.018
same,surviving fraction,XAV-939; 0.5 nM,1.3 ± 0.093
same,surviving fraction,XAV-939; 1 nM,1.34 ± 0.056
same,surviving fraction,XAV-939; 5 nM,1.37 ± 0.14
same,surviving fraction,XAV-939; 10 nM,1.23 ± 0.045
same,surviving fraction,XAV-939; 50 nM,1.3 ± 0.075
same,surviving fraction,XAV-939; 100 nM,1.41 ± 0.22
same,surviving fraction,XAV-939; 500 nM,1.33 ± 0.26
same,surviving fraction,XAV-939; 1000 nM,1.3 ± 0.075
YAMATO SYNOVIAL,surviving fraction,DASATINIB; 0.5 nM,0.822 ± 0.18
same,surviving fraction,DASATINIB; 1 nM,0.729 ± 0.097
same,surviving fraction,DASATINIB; 5 nM,0.836 ± 0.19
same,surviving fraction,DASATINIB; 10 nM,0.771 ± 0.2
same,surviving fraction,DASATINIB; 50 nM,0.848 ± 0.13
same,surviving fraction,DASATINIB; 100 nM,0.753 ± 0.11
same,surviving fraction,DASATINIB; 500 nM,0.63 ± 0.039
same,surviving fraction,DASATINIB; 1000 nM,0.677 ± 0.074
same,surviving fraction,XAV-939; 0.5 nM,1.28 ± 0.22
same,surviving fraction,XAV-939; 1 nM,1.22 ± 0.057
same,surviving fraction,XAV-939; 5 nM,1.26 ± 0.095
same,surviving fraction,XAV-939; 10 nM,1.34 ± 0.18
same,surviving fraction,XAV-939; 50 nM,1.3 ± 0.049
same,surviving fraction,XAV-939; 100 nM,1.24 ± 0.053
same,surviving fraction,XAV-939; 500 nM,1 ± 0.095
same,surviving fraction,XAV-939; 1000 nM,1.09 ± 0.037
ZR751 BREAST,surviving fraction,DASATINIB; 0.5 nM,0.934 ± 0.066
same,surviving fraction,DASATINIB; 1 nM,0.965 ± 0.23
same,surviving fraction,DASATINIB; 5 nM,0.851 ± 0.098
same,surviving fraction,DASATINIB; 10 nM,0.835 ± 0.045
same,surviving fraction,DASATINIB; 50 nM,0.877 ± 0.12
same,surviving fraction,DASATINIB; 100 nM,0.852 ± 0.18
same,surviving fraction,DASATINIB; 500 nM,1 ± 0.14
same,surviving fraction,DASATINIB; 1000 nM,0.922 ± 0.17
same,surviving fraction,XAV-939; 0.5 nM,0.873 ± 0.048
same,surviving fraction,XAV-939; 1 nM,0.925 ± 0.18
same,surviving fraction,XAV-939; 5 nM,0.869 ± 0.092
same,surviving fraction,XAV-939; 10 nM,0.987 ± 0.03
same,surviving fraction,XAV-939; 50 nM,0.683 ± 0.082
same,surviving fraction,XAV-939; 100 nM,0.762 ± 0.15
same,surviving fraction,XAV-939; 500 nM,0.69 ± 0.052
same,surviving fraction,XAV-939; 1000 nM,0.685 ± 0.036
